Residue numbers refer to the chain shown, from its start.
Key:
Type in all cases: binding
[1] = molecular target: T1, GLUT9 (Homo sapiens, UniProt Q9NRM0, C427A); experiment: MST with purified protein
T1 construct: gene SLC2A9; full length human SLC2A9, N-terminal twin strep and FLAG tag
T1 sequence (Q9NRM0 1-540 C427A): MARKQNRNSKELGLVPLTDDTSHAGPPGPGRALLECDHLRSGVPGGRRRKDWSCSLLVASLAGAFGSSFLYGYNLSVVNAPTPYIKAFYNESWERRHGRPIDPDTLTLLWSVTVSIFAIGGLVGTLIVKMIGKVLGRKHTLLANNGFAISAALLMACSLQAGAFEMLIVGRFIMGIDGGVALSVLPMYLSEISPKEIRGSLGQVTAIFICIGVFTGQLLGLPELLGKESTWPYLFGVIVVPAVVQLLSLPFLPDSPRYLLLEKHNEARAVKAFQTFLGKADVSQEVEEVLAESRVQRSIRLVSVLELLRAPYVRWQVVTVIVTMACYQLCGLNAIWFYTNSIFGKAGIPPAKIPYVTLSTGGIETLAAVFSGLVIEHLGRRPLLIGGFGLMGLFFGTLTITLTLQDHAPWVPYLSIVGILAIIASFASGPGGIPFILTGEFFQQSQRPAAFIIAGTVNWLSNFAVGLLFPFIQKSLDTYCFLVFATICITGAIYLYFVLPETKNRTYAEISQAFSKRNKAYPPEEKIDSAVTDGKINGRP

[2] = molecular target: T2, GLUT9 (Homo sapiens, UniProt Q9NRM0, Y327A); experiment: MST with purified protein
T2 construct: gene SLC2A9; full length human SLC2A9, N-terminal twin strep and FLAG tag
T2 sequence (Q9NRM0 1-540 Y327A): T1 sequence (Q9NRM0 1-540 C427A) with Y327A, A427C

[3] = molecular target: T3, GLUT9 (Homo sapiens, UniProt Q9NRM0); experiment: cryo-EM structure ([…] Å), MST Kd; patch clamp IC50 […]
T3 construct: gene SLC2A9; full length human SLC2A9, N-terminal twin strep and FLAG tag
T3 sequence (Q9NRM0 1-540): T1 sequence (Q9NRM0 1-540 C427A) with A427C

[4] = molecular target: T4, GLUT9 (Homo sapiens, UniProt Q9NRM0, N458A); experiment: MST with purified protein
T4 construct: gene SLC2A9; full length human SLC2A9, N-terminal twin strep and FLAG tag
T4 sequence (Q9NRM0 1-540 N458A): T1 sequence (Q9NRM0 1-540 C427A) with A427C, N458A

[5] = molecular target: T5, GLUT9 (Homo sapiens, UniProt Q9NRM0, W336A); experiment: MST with purified protein
T5 construct: gene SLC2A9; full length human SLC2A9, N-terminal twin strep and FLAG tag
T5 sequence (Q9NRM0 1-540 W336A): T1 sequence (Q9NRM0 1-540 C427A) with W336A, A427C

[6] = molecular target: T6, GLUT9 (Homo sapiens, UniProt Q9NRM0, N333A); experiment: MST with purified protein
T6 construct: gene SLC2A9; full length human SLC2A9, N-terminal twin strep and FLAG tag
T6 sequence (Q9NRM0 1-540 N333A): T1 sequence (Q9NRM0 1-540 C427A) with N333A, A427C

[7] = molecular target: T3, GLUT9; experiment: cryo-EM structure ([…] Å), MST Kd; patch clamp transport current
[8] = molecular target: T7, GLUT9 (Homo sapiens, UniProt Q9NRM0, E364A); experiment: MST with purified protein
T7 construct: gene SLC2A9; full length human SLC2A9, N-terminal twin strep and FLAG tag
T7 sequence (Q9NRM0 1-540 E364A): T1 sequence (Q9NRM0 1-540 C427A) with E364A, A427C

[9] = molecular target: T8, GLUT9 (Homo sapiens, UniProt Q9NRM0, Y327Q); experiment: MST with purified protein
T8 construct: gene SLC2A9; full length human SLC2A9, N-terminal twin strep and FLAG tag
T8 sequence (Q9NRM0 1-540 Y327Q): T1 sequence (Q9NRM0 1-540 C427A) with Y327Q, A427C

[10] = molecular target: T9, GLUT9 (Homo sapiens, UniProt Q9NRM0, W336F); experiment: MST with purified protein
T9 construct: gene SLC2A9; full length human SLC2A9, N-terminal twin strep and FLAG tag
T9 sequence (Q9NRM0 1-540 W336F): T1 sequence (Q9NRM0 1-540 C427A) with W336F, A427C

SMILES | Kd [1] [µM] | Kd [2] [µM] | Kd [3] [µM] | Kd [4] [µM] | Kd [5] [µM] | Kd [6] [µM] | Kd [7] [µM] | Kd [8] [µM] | Kd [9] [µM] | Kd [10] [µM]
O=c1cc(-c2ccc(O)cc2)oc2cc(O)cc(O)c12 [API, apigenin] | 1 ± 0.2 | 2.2 ± 0.7 | 0.5 ± 0.1 | 4.1 ± 1.1 | 1.3 ± 0.3 |  |  |  |  | 
O=c1[nH]c(=O)c2[nH]c(=O)[nH]c2[nH]1 [UA, urate] |  |  |  |  |  | 472 ± 52.2 | 231 ± 17.1 | 681 ± 126 | 867 ± 168 | 361 ± 80.3

Source: PMC11169512, “Structural basis for urate recognition and apigenin inhibition of human GLUT9” (Nature Communications, 2024)
